Reference: US20260083704A1, “LXR MODULATORS WITH BICYCLIC CORE MOIETY FOR TREATING DYSLIPIDEMIAS” (OrsoBio, Inc., priority 2022, published 2026)

Tests used:
[1] = biological target: T1, GST-LXRβ ligand-binding domain (Homo sapiens, UniProt P55055); experiment: TR-FRETβ activity assay (NCoA3 coactivator peptide recruitment); assay type: biochemical; details: 1 μM 24(S)-25-epoxycholesterol prestimulation
T1 construct: amino acids 156-461; NP009052; made in house; host or cells: E. coli
T1 sequence (P55055 156-460 limits assumed): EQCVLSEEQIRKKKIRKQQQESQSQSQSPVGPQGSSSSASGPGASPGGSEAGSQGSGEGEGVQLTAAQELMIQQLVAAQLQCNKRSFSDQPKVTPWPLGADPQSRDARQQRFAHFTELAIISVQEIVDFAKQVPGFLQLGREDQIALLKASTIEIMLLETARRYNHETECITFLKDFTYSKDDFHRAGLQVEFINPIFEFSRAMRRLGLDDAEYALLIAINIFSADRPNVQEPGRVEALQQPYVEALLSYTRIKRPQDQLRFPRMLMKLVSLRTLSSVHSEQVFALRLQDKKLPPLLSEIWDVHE
Description: Recombinant GST-LXRβ ligand-binding domain (LBD; amino acids 156-461; NP009052; SEQ ID NO:4) was expressed in E. coli and purified via gluthatione-sepharose affinity chromatography. N-terminally biotinylated NCoA3 coactivator peptide (SEQ ID NO:7) was chemically synthesized (Eurogentec). Assays were done in 384 well format (final assay volume of 25 μL/well) in a Tris/HCl buffer (pH 6.8) containing KCl, bovine serum albumin, Triton-X-100 and 1 μM 24(S)-25-epoxycholesterol as LXR-prestimulating agonist. Assay buffer was provided and test articles (potential LXR inverse agonists) were titrated to yield final assay concentrations of 50 μM, 16.7 μM, 5.6 μM, 1.9 μM, 0.6 μM, 0.2 μM, 0.07 μM, 0.02 μM, 0.007 μM, 0.002 μM with one vehicle control. Finally, a detection mix was added containing anti GST-Tb cryptate (CisBio; 610SAXLB) and Streptavidin-XL665 (CisBio; 610SAXLB) as fluorescent donor and acceptor, respectively, as well as the coactivator peptide and LXRβ-LBD protein (SEQ ID NO:4). The reaction was mixed thoroughly, equilibrated for 1 h at 4° C. and vicinity of LXRβ and coactivator peptide was detected by measurement of fluorescence in a VictorX4 multiplate reader (PerkinElmer Life Science) using 340 nm as excitation and 615 and 665 nm as emission wavelengths. Assays were performed in triplicates.
240 mM KCl, 1 μg/μL BSA, 0.002% Triton-X-100, […] anti GST-Tb cryptate, 2.5 ng/μL Streptavidin-XL665, coactivator peptide (400 nM), LXRβ protein (530 μg/mL, i.e. 76 nM).

LXRβ = biological target: T2, LXRβ (Homo sapiens, UniProt P55055); experiment: LXR Gal4 reporter transient transfection assay (mammalian two-hybrid, HEK293), LXRβ; assay type: cell-based; parameters: LXRβ (amino acids 156-461); expressed in transfected cells; host or cells: HEK293; details: full length (FL) LXRβ, HEK293; read-out: FL-M2H Gal4β
T2 sequence (P55055 1-460): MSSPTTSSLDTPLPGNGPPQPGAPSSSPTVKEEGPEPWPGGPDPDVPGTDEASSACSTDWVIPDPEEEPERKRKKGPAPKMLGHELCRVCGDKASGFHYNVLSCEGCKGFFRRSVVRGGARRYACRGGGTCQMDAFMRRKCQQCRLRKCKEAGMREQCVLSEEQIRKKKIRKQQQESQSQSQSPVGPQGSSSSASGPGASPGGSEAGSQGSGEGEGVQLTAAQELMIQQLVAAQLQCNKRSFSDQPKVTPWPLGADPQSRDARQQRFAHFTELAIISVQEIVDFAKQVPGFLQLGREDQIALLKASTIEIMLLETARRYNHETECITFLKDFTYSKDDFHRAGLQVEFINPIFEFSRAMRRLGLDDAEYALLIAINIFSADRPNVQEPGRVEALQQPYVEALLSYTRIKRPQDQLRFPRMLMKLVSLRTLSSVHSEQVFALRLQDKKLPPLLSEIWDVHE
Description: LXRα and LXRβ activity status was determined via detection of interaction with coactivator and corepressor proteins in mammalian two-hybrid experiments (M2H). For this, via transient transfection the full length (FL) proteins of LXRα (amino acids 1-447; NP005684; SEQ ID NO:1) or LXRβ-(amino acids 1-461; NP009052; SEQ ID NO:2) or the ligand-binding domains (LBD) of LXRα (amino acids 155-447 SEQ ID NO:3) or LXRβ (amino acids 156-461; SEQ ID NO:4) were expressed from pCMV-AD (Stratagene) as fusions to the transcriptional activation domain of NFkB. As cofactors, domains of either the steroid receptor coactivator 1 (SRC1; amino acids 552-887; SEQ ID NO:5) or of the corepressor NCoR (amino acids 1906-2312; NP006302; SEQ ID NO:6) were expressed as fusions to the DNA binding domain of the yeast transcription factor GAL4 (from pCMV-BD; Stratagene). Interaction was monitored via activation of a coexpressed Firefly Luciferase Reporter gene under control of a promoter containing repetitive GAL4 response elements (vector pFRLuc; Stratagene). Transfection efficiency was controlled via cotransfection of constitutively active pRL-CMV Renilla reniformis luciferase reporter (Promega). HEK293 cells were grown in minimum essential medium (MEM) with 2 mM L-glutamine and Earle's balanced salt solution supplemented with 8.3% fetal bovine serum, 0.1 mM non-essential amino acids, 1 mM sodium pyruvate, at 37° C. in 5% CO2. 3.5×10^4 cells/well were plated in 96-well cell culture plates in growth medium supplemented with 8.3% fetal bovine serum for 16-20 h to ˜90% confluency. For transfection, medium was taken off and LXR and cofactor expressing plasmids as well as the reporter plasmids are added in 30 μL OPTIMEM/well including polyethylene-imine (PEI) as vehicle. Typical amounts of plasmids transfected/well: pCMV-AD-LXR (5 ng), pCMV-BD-cofactor (5 ng), pFR-Luc (100 ng), pRL-CMV (0.5 ng). Compound stocks were prepared in DMSO, prediluted in MEM to a total volume of 120 μL, and added 4 h after addition of the transfection mixture (final vehicle concentration not exceeding 0.2%). Cells were incubated for additional 16 h, lysed for 10 min in 1×Passive Lysis Buffer (Promega) and Firefly and Renilla luciferase activities were measured sequentially in the same cell extract using buffers containing D-luciferine and coelenterazine, respectively. Measurements of luminescence were done in a BMG-luminometer.
The potencies of Compound 21/3 and its analog, Compound pre-6/3, against LXRα and LXRβ were evaluated in biochemical binding assays, cellular mammalian two-hybrid (M2H) interaction assays evaluating nuclear receptor co-repressor (NCOR) recruitment, and cellular reporter assays evaluating transcriptional activity (Table 5).

| Compound | EC50 [1] [nM] | EC50 (LXRβ) [nM] |
| --- | --- | --- |
| Cc1ccc(S(=O)(=O)n2c(-c3cccc(N4CC(C(=O)O)C4)c3)c(-c3ccoc3C#N)c3cc(F)ccc32)cc1 [3/26] | 1000 to 10000 | < 100 |
| Cc1ccc(S(=O)(=O)n2c(-c3cccc(N4CC(C(=O)O)C4)c3)c(-c3ccsc3CCO)c3cc(F)ccc32)cc1 [3/27] | 1000 to 10000 | 100 to 1000 |
| Cc1ccc(S(=O)(=O)n2c(-c3cccc(N4CC(C(=O)O)C4)c3)c(-c3ccsc3C(=O)N(C)C)c3cc(F)ccc32)cc1 [3/28] | > 10000 | 1000 to 10000 |
| Cc1ccc(S(=O)(=O)n2c(-c3cccc(N4CC(C(=O)O)C4)c3)c(-c3ccsc3C(F)(F)F)c3cc(F)ccc32)cc1 [3/30] | 100 to 1000 | < 100 |
| Cc1ccc(S(=O)(=O)n2c(-c3cccc(N4CC(C(=O)O)C4)c3)c(-c3ccccc3C3COC3)c3cc(F)ccc32)cc1 [3/31] | 100 to 1000 | 100 to 1000 |
| Cc1ccc(S(=O)(=O)n2c(-c3cccc(N4CC(C(=O)O)C4)c3)c(-c3ccsc3C#N)c3cc(F)ccc32)cc1 [3/32] | 100 to 1000 | < 100 |
| N#Cc1sccc1-c1c(-c2cccc(N3CC(C(=O)O)C3)c2)n(S(=O)(=O)c2ccc(C(F)(F)F)cc2)c2ccc(F)cc12 [3/34] | 100 to 1000 | < 100 |
| N#Cc1sccc1-c1c(-c2cccc(N3CC(C(=O)O)C3)c2)n(S(=O)(=O)c2ccc(C(F)F)cc2)c2ccc(F)cc12 [3/35] | 100 to 1000 | < 100 |
| CC1CCN(S(=O)(=O)n2c(-c3cccc(N4CC(C(=O)O)C4)c3)c(-c3ccsc3C#N)c3cc(F)ccc32)CC1 [3/36] | 1000 to 10000 | 100 to 1000 |
| Cc1ccc(S(=O)(=O)n2c(-c3cccc(N4CC(C)(C(=O)O)C4)c3)c(-c3ccsc3C#N)c3cc(F)ccc32)cc1 [3/37] | 100 to 1000 | < 100 |
| Cc1ccc(S(=O)(=O)n2c(-c3cccc(N4CCC(C(=O)O)CC4)c3)c(-c3ccsc3C#N)c3cc(F)ccc32)cc1 [3/38] | 100 to 1000 | < 100 |
| Cc1ccc(S(=O)(=O)n2c(-c3cccc(C4CC(C(=O)O)C4)c3)c(-c3ccsc3C#N)c3cc(F)ccc32)cc1 (centres unmarked) [3/39] | 100 to 1000 | < 100 |
| Cc1ccc(S(=O)(=O)n2c(-c3cc(N4CC(C(=O)O)C4)ccc3Cl)c(-c3ccsc3C#N)c3cc(F)ccc32)cc1 [3/40] | 1000 to 10000 | < 100 |
| Cc1ccc(S(=O)(=O)n2c(-c3cc(N4CC(C(=O)O)C4)ccc3F)c(-c3ccsc3C#N)c3cc(F)ccc32)cc1 [3/41] | 1000 to 10000 | < 100 |
| Cc1ccc(S(=O)(=O)n2c(-c3cccc(N4CC(C(=O)O)C4)c3)c(-c3ccsc3C#N)c3cc(C#N)ccc32)cc1 [3/45] | 1000 to 10000 | 100 to 1000 |
| Cc1ccc(S(=O)(=O)n2c(-c3cccc(-c4ccc(C(=O)O)nc4)c3)c(-c3ccsc3C#N)c3cc(F)ccc32)cc1 [3/47] | 100 to 1000 | < 100 |

| Compound | EC50 [1] [nM] | EC50 (LXRβ) [nM] |
| --- | --- | --- |
| Cc1ccc(S(=O)(=O)n2c(-c3cccc(-c4ccc(C(=O)O)c(Cl)c4)c3)c(-c3ccsc3C#N)c3cc(F)ccc32)cc1 [3/49] | 100 to 1000 | < 100 |
| Cc1ccc(S(=O)(=O)n2c(-c3cccc(N4CCC(C)(C(=O)O)CC4)c3)c(-c3ccsc3C#N)c3cc(F)ccc32)cc1 [3/50] | 100 to 1000 | < 100 |
| Cc1ccc(S(=O)(=O)n2c(-c3cccc(N4CC(C(=O)NC(C)(C)C(=O)O)C4)c3)c(-c3ccsc3C#N)c3cc(F)ccc32)cc1 [3/52] | 100 to 1000 | 100 to 1000 |
| COc1cc(F)cc2c(-c3ccsc3C#N)c(-c3cccc(-c4ccc(C(=O)O)cc4)c3)n(S(=O)(=O)c3ccc(C)cc3)c12 [3/53] | < 100 | < 100 |
| Cc1ccc(S(=O)(=O)n2c(-c3cccc(-c4ccc(C(=O)O)cc4)c3)c(-c3ccsc3C#N)c3cc(F)cc(O)c32)cc1 [3/54] | 100 to 1000 | < 100 |
| Cc1ccc(S(=O)(=O)n2c(-c3cccc(-c4ccc(C(C)(O)C(=O)O)cc4)c3)c(-c3ccsc3C#N)c3cc(F)ccc32)cc1 (centres unmarked) [3/55] | 100 to 1000 | < 100 |
| O=C(O)c1ccc(-c2cccc(-c3c(-c4ccccc4C4COC4)c4cc(F)ccc4n3S(=O)(=O)c3ccc(Cl)cc3)c2)c(Cl)c1 [3/56] | < 100 | < 100 |
| N#Cc1sccc1-c1c(-c2cccc(-c3ccc(C(=O)O)cc3Cl)c2)n(S(=O)(=O)c2ccc(Cl)cc2)c2ccc(F)cc12 [3/57] | 100 to 1000 | < 100 |
| Cc1ccc(S(=O)(=O)n2c(-c3cccc(N4[C@@H]5CC[C@H]4C[C@@H](C(=O)O)C5)c3)c(-c3ccsc3C#N)c3cc(F)ccc32)cc1 [3/58] | 1000 to 10000 | < 100 |
| N#Cc1sccc1-c1c(-c2cccc(N3CCC(C(=O)O)CC3)c2)n(S(=O)(=O)c2ccc(C(F)F)cc2)c2ccc(F)cc12 [3/60] | 100 to 1000 | < 100 |
| O=C(O)c1ccc(-c2cccc(-c3c(-c4ccccc4C4(F)CNC4)c4cc(F)ccc4n3S(=O)(=O)c3ccc(C(F)F)cc3)c2)c(Cl)c1 [3/61] | 100 to 1000 | 100 to 1000 |
| CN1CC(F)(c2ccccc2-c2c(-c3cccc(-c4ccc(C(=O)O)cc4Cl)c3)n(S(=O)(=O)c3ccc(C(F)F)cc3)c3ccc(F)cc23)C1 [3/62] | 100 to 1000 | < 100 |
| O=C(O)c1ccc(-c2cccc(-c3c(-c4ccsc4C4COC4)c4cc(F)ccc4n3S(=O)(=O)c3ccc(C(F)F)cc3)c2)c(Cl)c1 [3/63] | < 100 | < 100 |
| Cc1ccc(S(=O)(=O)n2c(-c3cccc(C4CC5(CC(C(=O)O)C5)C4)c3)c(-c3ccsc3C#N)c3cc(F)ccc32)cc1 (centres unmarked) [3/65] | 100 to 1000 | < 100 |
| CC1(C)CCN(S(=O)(=O)n2c(-c3cccc(-c4ccc(C(=O)O)cc4)c3)c(-c3ccsc3C#N)c3ccccc32)CC1 [3/66] | 1000 to 10000 | 100 to 1000 |
